From PMC9758846, “Dinuclear and mononuclear metal(II) polypyridyl complexes against drug-sensitive and drug-resistant Plasmodium falciparum and their mode of action” (Malaria Journal, 2022)

Assays:
[1] = test system: B+ blood red blood cells (RBC); test: In vitro haemolytic assay; assay type: cell-based, human; settings: 72 h, B+ blood
Method: Fresh B+ blood was washed with RPMI1640 medium containing of 30 µg/mL gentamicin (Gibco) and centrifuged at 1000 xg for 10 min three times. The percentage of haemolysis was determined spectroscopically using 5% haematocrit containing test compound at increasing concentration and incubated for 72 h at 37 °C [19, 20]. Untreated blood acted as negative control while blood treated with sterile distilled water acted as positive control (for 100% haemolysis).

[2] = PNDA assay of •OH radicals from reaction with H2O2; settings: 30 µM compound with excess H2O2
Method: A previously reported spectrometric assay using PNDA was used to quantify the amount of reactive oxygen species (ROS), viz. •OH radicals, produced by the reaction of metal(II) complexes with hydrogen peroxide in borate buffer at pH 7.5 [24–26]. The percentage of PNDA bleaching and the concentration of •OH produced were determined.

[3] = test system: Pf3D7; test: Intracellular ROS level using DCFH-DA; assay type: cell-based, Plasmodium falciparum
Method: (§1) After incubation, packed cells were washed with phosphate buffer saline (PBS) solution. […] The data was expressed as fold change between amount of ROS produced by treated P. falciparum against untreated P. falciparum. Normalization was done with the percentage of parasite viability obtained at each condition. Hydrogen peroxide was used as positive control.

[4] = test system: Pf5202; test: Intracellular ROS level using DCFH-DA; assay type: cell-based, Plasmodium falciparum
Method: as §1

[5] = biological target: Pf3D7 20S proteasome caspase-like (C-L) site (Plasmodium falciparum, UniProt Q8I0U7); test: 20S proteasome inhibition assay using parasite lysate; assay type: biochemical; settings: Suc-LLE-AMC, 30 min
Method: (§2) To harvest P. falciparum parasites, intraerythrocytic Pf3D7 and Pf5202 were collected in trophozoite and early schizont stages. Red blood cells were lysed in 0.15% (w/v) saponin lysis buffer for 10 min at 37 °C. After lysis, the parasite pellet was washed once with PBS buffer by centrifuging at 1600 rpm for 5 min. Saponin lysis buffer was added once again to remove all the red blood cells for 10 min at 37 °C, followed by washing with PBS twice and immediately used or kept at − 80 °C. To prepare parasite lysates for proteasome purification, parasite pellet was resuspended with 100 µl of pre-cooled Pierce™ RIPA buffer. A mild protein extraction method was used to prepare parasite extracts. The resuspended parasites were passed 20 times through a needle with a diameter of 0.4 mm in a syringe on ice to lyse the parasite. After 15 min centrifugation at 13,000 xg at 4 °C, the supernatant was removed. Protein concentration was determined by the Bradford assay. The activities of 3 proteolytic sites were determined by fluorescence assay using fluorogenic peptide substrates (Suc-LLVY-AMC for chymotrypsin-like, Boc-LRR-AMC for trypsin-like and Suc-LLE-AMC for caspase-like) Proteasome activities were determined by monitoring the substrate hydrolysis for 30 min at 37 °C with 340 nm excitation and 465 nm emission wavelength. Activity of each proteolytic site were calculated, and the IC50 values were determined from the non-linear regression analysis. VR23 proteasome inhibitor was used as positive control.

[6] = biological target: Pf3D7 20S proteasome chymotrypsin-like (CT-L) site (Plasmodium falciparum, UniProt Q8IJT1); test: as above; assay type: biochemical; settings: Suc-LLVY-AMC, 30 min
Method: as §2

[7] = biological target: Pf3D7 20S proteasome trypsin-like (T-L) site (Plasmodium falciparum, UniProt Q8I6T3); test: as above; assay type: biochemical; settings: Boc-LRR-AMC, 30 min
Method: as §2

[8] = biological target: Pf5202 20S proteasome caspase-like (C-L) site (Plasmodium falciparum, UniProt Q8I0U7); test: as above; assay type: biochemical; settings: Suc-LLE-AMC, 30 min
Method: as §2

[9] = biological target: Pf5202 20S proteasome chymotrypsin-like (CT-L) site (Plasmodium falciparum, UniProt Q8IJT1); test: as above; assay type: biochemical; settings: Suc-LLVY-AMC, 30 min
Method: as §2

[10] = biological target: Pf5202 20S proteasome trypsin-like (T-L) site (Plasmodium falciparum, UniProt Q8I6T3); test: as above; assay type: biochemical; settings: for IC50: parasite lysate, Boc-LRR-AMC, 30 min; for Factor by which T-L site of Pf5202 is inhibited better than that of Pf3D7: ratio of T-L IC50 values
Method: as §2

[11] = test system: Pf3D7; test: JC-1 mitochondrial membrane potential study; assay type: cell-based, Plasmodium falciparum; settings: JC-1 red/green fluorescence ratio
Method: (§3) Mitochondrial membrane potential was investigated using a BD™ MitoScreen Flow Cytometry Mitochondrial Membrane Potential Detection JC-1 kit. In brief, parasitized red blood cells were treated with test compounds at desired concentrations for 12 and 48 h at 37 °C. After incubation, packed cells were stained as per manufacturer’s instructions. Dissipation in Δψm was measured by calculating the ratio between the red and green fluorescence.

[12] = test system: Pf5202; test: JC-1 mitochondrial membrane potential study; assay type: cell-based, Plasmodium falciparum; settings: JC-1 red/green fluorescence ratio
Method: as §3

Chain of Pf5202 20S proteasome trypsin-like (T-L) site (Q8I6T3 entry or part of it): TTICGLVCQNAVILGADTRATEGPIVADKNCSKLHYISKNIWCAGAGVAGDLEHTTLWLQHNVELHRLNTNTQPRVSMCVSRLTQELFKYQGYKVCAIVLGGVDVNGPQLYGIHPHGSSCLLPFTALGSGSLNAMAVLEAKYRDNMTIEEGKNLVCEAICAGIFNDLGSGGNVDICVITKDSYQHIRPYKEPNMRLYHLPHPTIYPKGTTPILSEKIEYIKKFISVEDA
Chain of Pf5202 20S proteasome chymotrypsin-like (CT-L) site (Q8IJT1 entry or part of it): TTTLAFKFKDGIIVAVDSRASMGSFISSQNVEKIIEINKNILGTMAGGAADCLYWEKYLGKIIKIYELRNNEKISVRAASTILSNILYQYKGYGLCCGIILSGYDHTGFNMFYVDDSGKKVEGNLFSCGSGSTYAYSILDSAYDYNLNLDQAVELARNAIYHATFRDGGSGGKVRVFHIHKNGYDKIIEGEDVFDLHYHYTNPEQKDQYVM
Chain of Pf3D7 20S proteasome chymotrypsin-like (CT-L) site (Q8IJT1 entry or part of it): as above
Chain of Pf5202 20S proteasome caspase-like (C-L) site (Q8I0U7 entry or part of it): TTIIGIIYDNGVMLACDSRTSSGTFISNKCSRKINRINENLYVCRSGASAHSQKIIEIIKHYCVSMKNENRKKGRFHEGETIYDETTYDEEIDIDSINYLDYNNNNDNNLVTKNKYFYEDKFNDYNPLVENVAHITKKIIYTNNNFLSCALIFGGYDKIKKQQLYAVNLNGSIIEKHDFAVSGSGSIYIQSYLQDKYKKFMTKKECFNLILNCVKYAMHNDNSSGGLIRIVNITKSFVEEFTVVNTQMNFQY
Chain of Pf5202 20S proteasome caspase-like (C-L) site (Q8I6T3 entry or part of it, further chain): as the sequence (Q8I6T3 entry or part of it) above
Chain of Pf3D7 20S proteasome caspase-like (C-L) site (Q8I6T3 entry or part of it): as above
Chain of Pf3D7 20S proteasome caspase-like (C-L) site (Q8I0U7 entry or part of it): as the sequence (Q8I0U7 entry or part of it) above
Chain of Pf3D7 20S proteasome trypsin-like (T-L) site (Q8I6T3 entry or part of it): as the sequence (Q8I6T3 entry or part of it) above

## O.O=[N+]([O-])[O-].O=[N+]([O-])[O-].[Cu+2].c1cnc2c(c1)ccc1cccnc12.c1cnc2c(c1)ccc1cccnc12 [Complex 1, [Cu(phen)2](NO3)2·H2O]
[1]; 1 µM
  Percentage of haemolysis (haemolytic index, HI): 4%
[1]; 5 µM
  Percentage of haemolysis (haemolytic index, HI): 80%
[1]; 25 µM
  Percentage of haemolysis (haemolytic index, HI): 43%
[2]; 2 h
  Concentration of •OH radical: 32.20 ± 2.93 µM
[2]; 4 h
  Concentration of •OH radical: 34.36 ± 2.62 µM
[2]; 24 h
  Concentration of •OH radical: 35.43 ± 1.22 µM
[2]; 48 h
  Concentration of •OH radical: 32.19 ± 0.52 µM
[2]; 72 h
  Concentration of •OH radical: 28.96 ± 0.38 µM
[3]; 24 h, 0.2 µM
  fold change in ROS: 1.44 ± 0.10 fold
[3]; 24 h, 1.0 µM
  fold change in ROS: 1.54 ± 0.26 fold
[3]; 24 h, 5.0 µM
  fold change in ROS: 2.28 ± 0.25 fold
[3]; 24 h, 25.0 µM
  fold change in ROS: 7.59 ± 0.46 fold
[3]; 48 h, 0.2 µM
  fold change in ROS: 2.45 ± 0.41 fold
[3]; 48 h, 1.0 µM
  fold change in ROS: 3.20 ± 0.19 fold
[3]; 48 h, 5.0 µM
  fold change in ROS: 4.54 ± 0.52 fold
[3]; 48 h, 25.0 µM
  fold change in ROS: 6.83 ± 0.83 fold
[3]; 72 h, 0.2 µM
  fold change in ROS: 0.00 ± 0.10 fold
[4]; 24 h, 0.2 µM
  fold change in ROS: 1.04 ± 0.03 fold
[4]; 24 h, 1.0 µM
  fold change in ROS: 0.86 ± 0.04 fold
[4]; 24 h, 5.0 µM
  fold change in ROS: 0.59 ± 0.02 fold
[4]; 24 h, 25.0 µM
  fold change in ROS: 0.04 ± 0.03 fold
[4]; 48 h, 0.2 µM
  fold change in ROS: 0.32 ± 0.02 fold
[4]; 48 h, 1.0 µM
  fold change in ROS: 0.33 ± 0.05 fold
[4]; 48 h, 5.0 µM
  fold change in ROS: 0.72 ± 0.12 fold
[4]; 48 h, 25.0 µM
  fold change in ROS: 0.52 ± 0.26 fold
[4]; 72 h, 0.2 µM
  fold change in ROS: 1.09 ± 0.07 fold
[4]; 72 h, 1.0 µM
  fold change in ROS: 1.33 ± 0.41 fold
[4]; 72 h, 5.0 µM
  fold change in ROS: 1.69 ± 0.22 fold
[5]
  IC50: > 25 µM
[6]
  IC50: > 25 µM
[7]
  IC50: 2.39 ± 0.13 µM
[8]
  IC50: > 25 µM
[9]
  IC50: > 25 µM
[10]
  IC50: 1.62 ± 0.3 µM
  Factor by which T-L site of Pf5202 is inhibited better than that of Pf3D7: about 1.5 ×
[11]; 12 h, 1 µM
  Mitochondrial membrane potential (Δψm): 17.2 ± 12.8
[11]; 12 h, 5 µM
  Mitochondrial membrane potential (Δψm): 29.7 ± 12.1
[11]; 12 h, 25 µM
  Mitochondrial membrane potential (Δψm): 1.9 ± 1.1
[11]; 48 h, 1 µM
  Mitochondrial membrane potential (Δψm): 41.1 ± 5.1
[11]; 48 h, 5 µM
  Mitochondrial membrane potential (Δψm): 43.6 ± 15.0
[11]; 48 h, 25 µM
  Mitochondrial membrane potential (Δψm): 0.5 ± 0.3
[12]; 12 h, 1 µM
  Mitochondrial membrane potential (Δψm): 18.9 ± 2.8
[12]; 12 h, 5 µM
  Mitochondrial membrane potential (Δψm): 17.5 ± 3.5
[12]; 12 h, 25 µM
  Mitochondrial membrane potential (Δψm): 1.1 ± 0.6
[12]; 48 h, 1 µM
  Mitochondrial membrane potential (Δψm): 10.4 ± 3.1
[12]; 48 h, 5 µM
  Mitochondrial membrane potential (Δψm): 6.0 ± 1.8
[12]; 48 h, 25 µM
  Mitochondrial membrane potential (Δψm): 1.2 ± 0.1

## [Cu(phen)(NO3)(H2O)-4,4′-bipy-Cu(phen)(NO3)(H2O)](NO3)2 [Complex 3]
[1]; 1 µM
  Percentage of haemolysis (haemolytic index, HI): 35%
[1]; 5 µM
  Percentage of haemolysis (haemolytic index, HI): 96%
[1]; 25 µM
  Percentage of haemolysis (haemolytic index, HI): 36%
[2]; 2 h
  Concentration of •OH radical: 21.13 ± 0.41 µM
[2]; 4 h
  Concentration of •OH radical: 22.16 ± 0.36 µM
[2]; 24 h
  Concentration of •OH radical: 23.51 ± 1.09 µM
[2]; 48 h
  Concentration of •OH radical: 21.29 ± 1.67 µM
[2]; 72 h
  Concentration of •OH radical: 18.89 ± 1.45 µM
[3]; 24 h, 0.2 µM
  fold change in ROS: 1.76 ± 0.47 fold
[3]; 24 h, 1.0 µM
  fold change in ROS: 1.13 ± 0.56 fold
[3]; 24 h, 5.0 µM
  fold change in ROS: 2.30 ± 0.86 fold
[3]; 24 h, 25.0 µM
  fold change in ROS: 5.36 ± 0.30 fold
[3]; 48 h, 0.2 µM
  fold change in ROS: 1.20 ± 0.64 fold
[3]; 48 h, 1.0 µM
  fold change in ROS: 1.28 ± 0.31 fold
[3]; 48 h, 5.0 µM
  fold change in ROS: 3.80 ± 1.18 fold
[3]; 48 h, 25.0 µM
  fold change in ROS: 5.46 ± 0.25 fold
[3]; 72 h, 0.2 µM
  fold change in ROS: 1.49 ± 0.10 fold
[3]; 72 h, 1.0 µM
  fold change in ROS: 1.77 ± 0.24 fold
[3]; 72 h, 5.0 µM
  fold change in ROS: 1.68 ± 0.41 fold
[3]; 72 h, 25.0 µM
  fold change in ROS: 2.74 ± 0.24 fold
[4]; 24 h, 0.2 µM
  fold change in ROS: 0.04 ± 0.33 fold
[4]; 48 h, 0.2 µM
  fold change in ROS: 0.52 ± 0.60 fold
[4]; 48 h, 1.0 µM
  fold change in ROS: 0.66 ± 0.50 fold
[4]; 48 h, 5.0 µM
  fold change in ROS: 2.53 ± 0.85 fold
[4]; 48 h, 25.0 µM
  fold change in ROS: 3.39 ± 0.66 fold
[4]; 72 h, 5.0 µM
  fold change in ROS: 8.43 ± 0.60 fold
[5]
  IC50: > 25 µM
[6]
  IC50: > 25 µM
[7]
  IC50: 2.64 ± 0.35 µM
[8]
  IC50: > 25 µM
[9]
  IC50: > 25 µM
[10]
  IC50: 1.72 ± 0.13 µM
  Factor by which T-L site of Pf5202 is inhibited better than that of Pf3D7: about 1.5 ×
[11]; 12 h, 1 µM
  Mitochondrial membrane potential (Δψm): 24.2 ± 1.6
[11]; 12 h, 5 µM
  Mitochondrial membrane potential (Δψm): 49.3 ± 23.8
[11]; 12 h, 25 µM
  Mitochondrial membrane potential (Δψm): 0.4 ± 0.2
[11]; 48 h, 1 µM
  Mitochondrial membrane potential (Δψm): 45.0 ± 26.4
[11]; 48 h, 5 µM
  Mitochondrial membrane potential (Δψm): 4.7 ± 2.6
[11]; 48 h, 25 µM
  Mitochondrial membrane potential (Δψm): 0.1 ± 0.04
[12]; 12 h, 1 µM
  Mitochondrial membrane potential (Δψm): 17.5 ± 2.2
[12]; 12 h, 5 µM
  Mitochondrial membrane potential (Δψm): 16.6 ± 4.6
[12]; 12 h, 25 µM
  Mitochondrial membrane potential (Δψm): 0.5 ± 0.1
[12]; 48 h, 1 µM
  Mitochondrial membrane potential (Δψm): 19.2 ± 8.4
[12]; 48 h, 5 µM
  Mitochondrial membrane potential (Δψm): 0.6 ± 0.1
[12]; 48 h, 25 µM
  Mitochondrial membrane potential (Δψm): 0.1 ± 0.01
